Patent US20120316342A1, “THERAPEUTIC AGENT FOR HEPATITIS C” (priority 2010, published 2012)
Entries after “also recorded” stand apart in the source; their conditions may differ.

How the values were obtained:
[1] = test system: Subgenomic HCV RNA replicon cells (LucNeo#2) having a luciferase gene; experiment: Anti-HCV activity using replicon cells (luciferase assay); assay type: cell-based; details: luciferase assay; for EC50: LucNeo#2 subgenomic replicon cells, 3 days, read-out: EC50; for anti-HCV activity (in words): Table 2, FIGS. 13 to 15
Method: Subgenomic HCV RNA replicon cells (LucNeo#2, Goto et al., Biochem. Biophys. Res. Commun., 2006, vol. 343, pp. 879-884) having a luciferase gene were suspended in a Dulbecco's modified Eagle medium (DMEM) containing 10% FBS and 1 mg/ml G418 (Sigma). The cells were incubated for 24 hours and then cultured in G418-free fresh media each containing test compounds at various concentrations for 3 days. In order to perform luciferase assays, the cells were washed with PBS and treated with a lysate for 10 minutes with intermittent agitation. A cell lysate (25 μl) was transferred to a white microtiter plate. Luciferase assay reagents (100 μl, Promega, Tokyo) were added to each well and the luciferase activity was measured with a luminometer.
(§1) Based on the luciferase assay results, the HCV genomic RNA level was measured, and a percentage (%) relative to the level of RNA of a control group to which the test compound was not administered was determined. Based on the results of tetrazolium staining, cell survival rates (%) of the group to which the test compound had been administered and of a control group were determined. The dose-response relationship of the test compound was analyzed based on the results of quantitative luciferase assays to determine EC50(μM), and the dose-response relationship of the test compound was analyzed based on the results of tetrazolium staining to determine CC50.

[2] = test system: Subgenomic HCV RNA replicon cells (LucNeo#2); experiment: Cytotoxicity (cell survival rate) by tetrazolium staining in luciferase replicon cells; assay type: cell-based; details: for CC50: LucNeo#2 subgenomic replicon cells
Method: A tetrazolium staining solution (10 μl, Seikagaku Corporation, Tokyo) was added to each well in order to examine cytotoxicity (a cell survival rate). After the cells were incubated for 1 hour, the absorbance at the characteristic absorption wavelength (450 nm) was measured with the use of a microplate reader.
as §1

SMILES	EC50 [1]	anti-HCV activity (in words) [1]	CC50 [2]	cytotoxicity (in words) ([2]; Table 2)
CCCCn1c(=O)c2cc(OC)ccc2c2cc(C(O)(C(F)(F)F)C(F)(F)F)c3c(c21)OCO3 [HA-719, 4-butyl-11-(1′,1′,1′,3′,3′,3′-hexafluoro-2′-hydroxypropan-2′-yl)-7-methoxy-[1,3]dioxolo[4,5-c]phenanthridin-5(4H)-one]	0.05 µM	very high; also recorded: high degree of anti-HCV activity	6.4 µM	high degree of cytotoxicity
CCCCn1c(=O)c2c(OC)cc(OC)cc2c2cc(C(O)(C(F)(F)F)C(F)(F)F)ccc21 [KZ38, 5-butyl-2-(1′,1′,1′,3′,3′,3′-hexafluoro-2′-hydroxypropan-2′-yl)-7,9-dimethoxy-phenanthridin-6(5H)-one]	2.6 µM		8.2 µM	
CCCCn1c(=O)c2cc3c(cc2c2cc(C(O)(C(F)(F)F)C(F)(F)F)ccc21)OCO3 [KZ26, 5-butyl-2-(1′,1′,1′,3′,3′,3′-hexafluoro-2′-hydroxypropan-2′-yl)-[1,3]dioxolo[4,5-j]phenanthridin-6(5H)-one]	2.3 µM	high degree of anti-HCV activity at non-cytotoxic concentrations	> 100 µM	
CCCCn1c(=O)c2ccccc2c2cc(C(O)(C(F)(F)F)C(F)(F)F)c(OC)cc21 [KZ36, 5-butyl-2-(1′,1′,1′,3′,3′,3′-hexafluoro-2-hydroxypropan-2′-yl)-3-methoxy-phenanthridin-6(5H)-one]	2.2 µM		5.7 µM	
CCCCn1c(=O)c2ccccc2c2cc(C(O)(C(F)(F)F)C(F)(F)F)c3c(c21)OCO3 [HA-718, 4-butyl-1′-(1′,1′,1′,3′,3′,3′-hexafluoro-2′-hydroxypropan-2′-yl)-[1,3]dioxolo[4,5-c]phenanthridin-5(4H)-one]	0.29 µM		24.2 µM	
CCCCn1c(=O)c2cc(OC)c(OC)cc2c2cc(C(O)(C(F)(F)F)C(F)(F)F)ccc21 [KZ25, 5-butyl-2-(1′,1′,1′,3′,3′,3′-hexafluoro-2′-hydroxypropan-2′-yl)-8,9-dimethoxy-phenanthridin-6(5H)-one]	> 2.8 µM		2.8 µM	
CCCCn1c(=O)c2c(OC)c(OC)c(OC)cc2c2cc(C(O)(C(F)(F)F)C(F)(F)F)ccc21 [KZ39, 5-butyl-2-(1′,1′,1′,3′,3′,3′-hexafluoro-2′-hydroxypropan-2′-yl)-7,8,9-trimethoxy-phenanthridin-6(5H)-one]	> 2 µM		2 µM	
CCCCn1c(=O)c2ccc(OC)cc2c2cc(C(O)(C(F)(F)F)C(F)(F)F)ccc21 [KZ32, 5-butyl-2-(1′,1′,1′,3′,3′,3′-hexafluoro-2′-hydroxypropan-2′-yl)-9-methoxy-phenanthridin-6(5H)-one]	16.6 µM		28.9 µM	
CCCCn1c(=O)c2cccc(OC)c2c2cc(C(O)(C(F)(F)F)C(F)(F)F)ccc21 [KZ33, 5-butyl-2-(1′,1′,1′,3′,3′,3′-hexafluoro-2′-hydroxypropan-2′-yl)-10-methoxy-phenanthridin-6(5H)-one]	5 µM		6.9 µM	
CCCCn1c(=O)c2ccccc2c2c(O)c(C(O)(C(F)(F)F)C(F)(F)F)ccc21 [KZ35, 5-butyl-2-(1′,1′,1′,3′,3′,3′-hexafluoro-2′-hydroxypropan-2′-yl)-1-hydroxy-phenanthridin-6(5H)-one]	44 µM		52.3 µM	
CCCCn1c(=O)c2ccccc2c2c(OC)c(C(OC)(C(F)(F)F)C(F)(F)F)cc(OC)c21 [KZ29, 5-butyl-2-(1′,1′,1′,3′,3′,3′-hexafluoro-2′-methoxypropan-2′-yl)-1,4-dimethoxy-phenanthridin-6(5H)-one]	30.4 µM		> 100 µM	
CCCCn1c(=O)c2ccccc2c2cc(C(OCc3ccccc3)(C(F)(F)F)C(F)(F)F)c(OC)cc21 [KZ37, 2-(2′-benzyloxy-1′,1′,1′,3′,3′,3′-hexafluoropropan-2′-yl)-5-butyl-3-methoxy-phenanthridin-6(5H)-one]	2.6 µM	high degree of anti-HCV activity at non-cytotoxic concentrations; also recorded: high degree of anti-HCV activity	> 100 µM	
CCCCn1c(=O)c2c(OC)cccc2c2cc(C(O)(C(F)(F)F)C(F)(F)F)ccc21 [KZ31, 5-butyl-2-(1′,1′,1′,3′,3′,3′-hexafluoro-2′-hydroxypropan-2′-yl)-7-methoxy-phenanthridin-6(5H)-one]	10 µM		12.6 µM	
CCCCn1c(=O)c2ccccc2c2cc(C(O)(C(F)(F)F)C(F)(F)F)c(OC)c(OC)c21 [HA-726, 5-butyl-2-(1′,1′,1′,3′,3′,3′-hexafluoro-2′-hydroxypropan-2′-yl)-3,4-dimethoxy-phenanthridin-6(5H)-one]	2.6 µM		10.4 µM	
CCCCn1c(=O)c2c(OC)c(OC)ccc2c2cc(C(O)(C(F)(F)F)C(F)(F)F)ccc21 [KZ27, 5-butyl-2-(1′,1′,1′,3′,3′,3′-hexafluoro-2′-hydroxypropan-2′-yl)-7,8-dimethoxy-phenanthridin-6(5H)-one]	5.5 µM		14.2 µM	
CCCCn1c(=O)c2cc(OC)ccc2c2cc(C(OCc3ccccc3)(C(F)(F)F)C(F)(F)F)c3c(c21)OCO3 [HA-758, 11-(2′-benzyloxy-1′,1′,1′,3′,3′,3′-hexafluoropropan-2′-yl)-4-butyl-7-methoxy-[1,3]-dioxolo[4,5-c]phenanthridin-5(4H)-one]	1.71 µM	high degree of anti-HCV activity at non-cytotoxic concentrations; also recorded: high degree of anti-HCV activity	> 100 µM	
CCCCn1c(=O)c2cc(OC)ccc2c2c(OC)c(C(OC)(C(F)(F)F)C(F)(F)F)cc(OC)c21 [KZ30, 5-butyl-2-(1′,1′,1′,3′,3′,3′-hexafluoro-2′-methoxypropan-2′-yl)-1,4,8-trimethoxy-phenanthridin-6(5H)-one]	9.2 µM	high degree of anti-HCV activity at non-cytotoxic concentrations	> 100 µM	
CCCCn1c(=O)c2cc(OC)ccc2c2cc(C(O)(C(F)(F)F)C(F)(F)F)c(OC)c(OC)c21 [HA-727, 5-butyl-2-(1′,1′,1′,3′,3′,3′-hexafluoro-2′-hydroxypropan-2′-yl)-3,4,8-trimethoxy-phenanthridin-6(5H)-one]	1.8 µM		6.8 µM	
CCCCn1c(=O)c2cc(OC)c(OC)c(OC)c2c2cc(C(O)(C(F)(F)F)C(F)(F)F)ccc21 [KZ28, 5-butyl-2-(1′,1′,1′,3′,3′,3′-hexafluoro-2′-hydroxypropan-2′-yl)-8,9,10-trimethoxy-phenanthridin-6(5H)-one]	8.3 µM		9.4 µM	
